The structures appear in SMILES notation. Starred links: 1 amine or outer side, 2 acyl side, 3 side chain; linkers in the order of their positions; H or OH if unused. Positions of bridges follow the written chain, without caps; N, C: chain ends. Non-standard residues stand in square brackets, D forms with d. Residues, ends and D or L forms follow the SMILES beside them. Groups on a side chain read outwards from the residue. *: point of attachment. Trp(1-CH2CO2Me) = COC(=O)Cn1cc(C[C@H](N)C(=O)O)c2ccccc21; Trp(1-CH2COOH) = N[C@@H](Cc1cn(CC(=O)O)c2ccccc12)C(=O)O; Acridine9carbonyl = O=C(c1c2ccccc2nc2ccccc12)*; X73 = FC(F)(F)c1cc(NC(=S)*)cc(C(F)(F)F)c1; NH(2-CF3-phenyl) = FC(F)(F)c1ccccc1N*; X67 = S=C(Nc1c(Cl)c(Cl)cc(Cl)c1Cl)*; X1 = S=C(Nc1ccc2c(c1)Cc1ccccc1-2)*; Hyp = O=C(O)[C@@H]1C[C@@H](O)CN1; X34 = O=C(c1c2ccccc2cc2ccccc12)*; X47 = O=C(c1cn2c(n1)sc1ccccc12)*; X27 = Cc1cc([N+](=O)[O-])ccc1N*; X43 = S=C(Nc1ccccc1Oc1ccccc1)*; pNA = O=[N+]([O-])c1ccc(N*)cc1; NH(3-MeOPh) = COc1cccc(N*)c1; NMeNle = CCCC[C@H](NC)C(=O)O; X92 = FC(F)(F)c1cc(Cl)ccc1N*; NMeA = CN[C@@H](C)C(=O)O; Dab = NCC[C@H](N)C(=O)O; X39 = CCCCOc1ccc(N*)cc1; Dap = NC[C@H](N)C(=O)O; CO = O=C([*:1])[*:2]

The target in the first assay is T1, PD-1/PD-L1 (Homo sapiens, UniProt Q9NZQ7).
T1 construct: TVMV protease site linker (C); made in house; host or cells: HEK293T cells
T1 sequence (Q9NZQ7 18-239): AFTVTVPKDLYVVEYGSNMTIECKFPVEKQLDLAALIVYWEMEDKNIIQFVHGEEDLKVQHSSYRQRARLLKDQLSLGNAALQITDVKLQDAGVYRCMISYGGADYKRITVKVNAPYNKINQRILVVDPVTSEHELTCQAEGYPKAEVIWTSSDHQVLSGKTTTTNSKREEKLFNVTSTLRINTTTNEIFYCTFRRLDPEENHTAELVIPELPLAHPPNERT
The assay is described as follows: PD-1/PD-L1 Homogenous Time-Resolved Fluorescence (HTRF) binding assay.
Conditions: not given
Put shortly:
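Compounds preincubated 15 min with PD-L1-His (10 nM final), then PD-1-Ig (20 nM final) added for 15 min in dPBS with 0.1% BSA, 0.05% Tween-20. Detection by Eu-cryptate anti-Ig (1 nM) and APC anti-His (20 nM) HTRF.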
For orientation: Time-resolved FRET reads energy transfer from a long-lived donor to a nearby acceptor.
Take `CCCC[C@H]1C(=O)N(C)[C@@H](CCCC)C(=O)N[C@@H](CC(C)C)C(=O)N[C@H](C(=O)NCC(N)=O)CSCC(=O)N[C@@H](Cc2ccc(O)cc2)C(=O)N(C)[C@@H](C)C(=O)N[C@@H](CC(N)=O)C(=O)N2CCC[C@H]2C(=O)N[C@@H](CNC(=O)Nc2ccc([N+](=O)[O-])cc2)C(=O)N[C@@H](CC(C)C)C(=O)N2C[C@H](O)C[C@H]2C(=O)N[C@@H](Cc2c[nH]c3ccccc23)C(=O)N[C@@H](CCN)C(=O)N[C@@H](Cc2cn(CC(=O)O)c3ccccc23)C(=O)N1C` [Example 1132] ({CH2CO}-Y[NMeA]NP[Dap]([CO-pNA])L[Hyp]W[Dab][Trp(1-CH2COOH)][NMeNle][NMeNle]LCG-NH2; thioether N-14): the IC50 stood at 0.0037 µM.

The same assay, now with this note: PD-L1-His 10 nM pre-incubated with inhibitor, PD-1-Ig 20 nM; read-out: HTRF IC50.
`CCCC[C@H]1C(=O)N(C)[C@@H](CCCC)C(=O)N[C@@H](CC(C)C)C(=O)N[C@H](C(=O)NCC(N)=O)CSCC(=O)N[C@@H](Cc2ccc(O)cc2)C(=O)N(C)[C@@H](C)C(=O)N[C@@H](CC(N)=O)C(=O)N2CCC[C@H]2C(=O)N[C@@H](CNC(=O)Nc2ccc([N+](=O)[O-])cc2C)C(=O)N[C@@H](CC(C)C)C(=O)N2C[C@H](O)C[C@H]2C(=O)N[C@@H](Cc2c[nH]c3ccccc23)C(=O)N[C@@H](CCN)C(=O)N[C@@H](Cc2cn(CC(=O)O)c3ccccc23)C(=O)N1C` [Example 1133] ({CH2CO}-Y[NMeA]NP[Dap]([CO-X27])L[Hyp]W[Dab][Trp(1-CH2COOH)][NMeNle][NMeNle]LCG-NH2; thioether N-14): the IC50 was determined as 0.0084 µM.

Regarding `CCCC[C@H]1C(=O)N(C)[C@@H](CCCC)C(=O)N[C@@H](CC(C)C)C(=O)N[C@H](C(=O)NCC(N)=O)CSCC(=O)N[C@@H](Cc2ccc(O)cc2)C(=O)N(C)[C@@H](C)C(=O)N[C@@H](CC(N)=O)C(=O)N2CCC[C@H]2C(=O)N[C@@H](CNC(=S)Nc2c(Cl)c(Cl)cc(Cl)c2Cl)C(=O)N[C@@H](CC(C)C)C(=O)N2C[C@H](O)C[C@H]2C(=O)N[C@@H](Cc2c[nH]c3ccccc23)C(=O)N[C@@H](CCNC(=S)Nc2c(Cl)c(Cl)cc(Cl)c2Cl)C(=O)N[C@@H](Cc2cn(CC(=O)O)c3ccccc23)C(=O)N1C` [Example 1134] ({CH2CO}-Y[NMeA]NP[Dap](X67)L[Hyp]W[Dab](X67)[Trp(1-CH2COOH)][NMeNle][NMeNle]LCG-NH2; thioether N-14), the IC50 was 0.0024 µM.

Turning to `CCCC[C@H]1C(=O)N(C)[C@@H](CCCC)C(=O)N[C@@H](CC(C)C)C(=O)N[C@H](C(=O)NCC(N)=O)CSCC(=O)N[C@@H](Cc2ccc(O)cc2)C(=O)N(C)[C@@H](C)C(=O)N[C@@H](CC(N)=O)C(=O)N2CCC[C@H]2C(=O)N[C@@H](CNC(=S)Nc2ccccc2Oc2ccccc2)C(=O)N[C@@H](CC(C)C)C(=O)N2C[C@H](O)C[C@H]2C(=O)N[C@@H](Cc2c[nH]c3ccccc23)C(=O)N[C@@H](CCN)C(=O)N[C@@H](Cc2cn(CC(=O)O)c3ccccc23)C(=O)N1C` [Example 1135] ({CH2CO}-Y[NMeA]NP[Dap](X43)L[Hyp]W[Dab][Trp(1-CH2COOH)][NMeNle][NMeNle]LCG-NH2; thioether N-14), the IC50 was found to be 0.0049 µM.

For the compound `CCCC[C@H]1C(=O)N(C)[C@@H](CCCC)C(=O)N[C@@H](CC(C)C)C(=O)N[C@H](C(=O)NCC(N)=O)CSCC(=O)N[C@@H](Cc2ccc(O)cc2)C(=O)N(C)[C@@H](C)C(=O)N[C@@H](CC(N)=O)C(=O)N2CCC[C@H]2C(=O)N[C@@H](CNC(=S)Nc2cc(C(F)(F)F)cc(C(F)(F)F)c2)C(=O)N[C@@H](CC(C)C)C(=O)N2C[C@H](O)C[C@H]2C(=O)N[C@@H](Cc2c[nH]c3ccccc23)C(=O)N[C@@H](CCN)C(=O)N[C@@H](Cc2cn(CC(=O)O)c3ccccc23)C(=O)N1C` [Example 1136] ({CH2CO}-Y[NMeA]NP[Dap](X73)L[Hyp]W[Dab][Trp(1-CH2COOH)][NMeNle][NMeNle]LCG-NH2; thioether N-14), the IC50 was determined as 0.014 µM.

For `CCCC[C@H]1C(=O)N(C)[C@@H](CCCC)C(=O)N[C@@H](CC(C)C)C(=O)N[C@H](C(=O)NCC(N)=O)CSCC(=O)N[C@@H](Cc2ccc(O)cc2)C(=O)N(C)[C@@H](C)C(=O)N[C@@H](CC(N)=O)C(=O)N2CCC[C@H]2C(=O)N[C@@H](CNC(=O)Nc2ccccc2C(F)(F)F)C(=O)N[C@@H](CC(C)C)C(=O)N2C[C@H](O)C[C@H]2C(=O)N[C@@H](Cc2c[nH]c3ccccc23)C(=O)N[C@@H](CCNC(=O)Nc2ccccc2C(F)(F)F)C(=O)N[C@@H](Cc2cn(CC(=O)O)c3ccccc23)C(=O)N1C` [Example 1137] ({CH2CO}-Y[NMeA]NP[Dap]([CO-NH(2-CF3-phenyl)])L[Hyp]W[Dab]([CO-NH(2-CF3-phenyl)])[Trp(1-CH2COOH)][NMeNle][NMeNle]LCG-NH2; thioether N-14), the half-maximal inhibitory concentration (IC50) amounted to 0.02 µM.

For `CCCC[C@H]1C(=O)N(C)[C@@H](CCCC)C(=O)N[C@@H](CC(C)C)C(=O)N[C@H](C(=O)NCC(N)=O)CSCC(=O)N[C@@H](Cc2ccc(O)cc2)C(=O)N(C)[C@@H](C)C(=O)N[C@@H](CC(N)=O)C(=O)N2CCC[C@H]2C(=O)N[C@@H](CNC(=O)Nc2ccc(Cl)cc2C(F)(F)F)C(=O)N[C@@H](CC(C)C)C(=O)N2C[C@H](O)C[C@H]2C(=O)N[C@@H](Cc2c[nH]c3ccccc23)C(=O)N[C@@H](CCNC(=O)Nc2ccc(Cl)cc2C(F)(F)F)C(=O)N[C@@H](Cc2cn(CC(=O)O)c3ccccc23)C(=O)N1C` [Example 1138] ({CH2CO}-Y[NMeA]NP[Dap]([CO-X92])L[Hyp]W[Dab]([CO-X92])[Trp(1-CH2COOH)][NMeNle][NMeNle]LCG-NH2; thioether N-14), the concentration for half-maximal inhibition (IC50) came out at 0.0097 µM.

As for `CCCCOc1ccc(NC(=O)NC[C@@H]2NC(=O)[C@@H]3CCCN3C(=O)[C@H](CC(N)=O)NC(=O)[C@H](C)N(C)C(=O)[C@H](Cc3ccc(O)cc3)NC(=O)CSC[C@@H](C(=O)NCC(N)=O)NC(=O)[C@H](CC(C)C)NC(=O)[C@H](CCCC)N(C)C(=O)[C@H](CCCC)N(C)C(=O)[C@H](Cc3cn(CC(=O)O)c4ccccc34)NC(=O)[C@H](CCN)NC(=O)[C@H](Cc3c[nH]c4ccccc34)NC(=O)[C@@H]3C[C@@H](O)CN3C(=O)[C@H](CC(C)C)NC2=O)cc1` [Example 1139] ({CH2CO}-Y[NMeA]NP[Dap]([CO-X39])L[Hyp]W[Dab][Trp(1-CH2COOH)][NMeNle][NMeNle]LCG-NH2; thioether N-14), the IC50 came to 0.013 µM.

On to `CCCC[C@H]1C(=O)N(C)[C@@H](CCCC)C(=O)N[C@@H](CC(C)C)C(=O)N[C@H](C(=O)NCC(N)=O)CSCC(=O)N[C@@H](Cc2ccc(O)cc2)C(=O)N(C)[C@@H](C)C(=O)N[C@@H](CC(N)=O)C(=O)N2CCC[C@H]2C(=O)N[C@@H](CNC(=O)Nc2cccc(OC)c2)C(=O)N[C@@H](CC(C)C)C(=O)N2C[C@H](O)C[C@H]2C(=O)N[C@@H](Cc2c[nH]c3ccccc23)C(=O)N[C@@H](CCNC(=O)Nc2cccc(OC)c2)C(=O)N[C@@H](Cc2cn(CC(=O)O)c3ccccc23)C(=O)N1C` [Example 1140] ({CH2CO}-Y[NMeA]NP[Dap]([CO-NH(3-MeOPh)])L[Hyp]W[Dab]([CO-NH(3-MeOPh)])[Trp(1-CH2COOH)][NMeNle][NMeNle]LCG-NH2; thioether N-14), for which the IC50 came out at 0.006 µM.

Take `CCCC[C@H]1C(=O)N(C)[C@@H](CCCC)C(=O)N[C@@H](CC(C)C)C(=O)N[C@H](C(=O)NCC(N)=O)CSCC(=O)N[C@@H](Cc2ccc(O)cc2)C(=O)N(C)[C@@H](C)C(=O)N[C@@H](CC(N)=O)C(=O)N2CCC[C@H]2C(=O)N[C@@H](CNC(=O)c2cn3c(n2)sc2ccccc23)C(=O)N[C@@H](CC(C)C)C(=O)N2C[C@H](O)C[C@H]2C(=O)N[C@@H](Cc2c[nH]c3ccccc23)C(=O)N[C@@H](CCNC(=O)c2cn3c(n2)sc2ccccc23)C(=O)N[C@@H](Cc2cn(CC(=O)OC)c3ccccc23)C(=O)N1C` [Example 2001] ({CH2CO}-Y[NMeA]NP[Dap](X47)L[Hyp]W[Dab](X47)[Trp(1-CH2CO2Me)][NMeNle][NMeNle]LCG-NH2; thioether N-14): the half-inhibitory concentration (IC50) turned out to be 0.184 µM.

On to `CCCC[C@H]1C(=O)N(C)[C@@H](CCCC)C(=O)N[C@@H](CC(C)C)C(=O)N[C@H](C(=O)NCC(N)=O)CSCC(=O)N[C@@H](Cc2ccc(O)cc2)C(=O)N(C)[C@@H](C)C(=O)N[C@@H](CC(N)=O)C(=O)N2CCC[C@H]2C(=O)N[C@@H](CNC(=O)c2c3ccccc3nc3ccccc23)C(=O)N[C@@H](CC(C)C)C(=O)N2C[C@H](O)C[C@H]2C(=O)N[C@@H](Cc2c[nH]c3ccccc23)C(=O)N[C@@H](CCNC(=O)c2c3ccccc3nc3ccccc23)C(=O)N[C@@H](Cc2cn(CC(=O)OC)c3ccccc23)C(=O)N1C` [Example 2003] ({CH2CO}-Y[NMeA]NP[Dap](Acridine9carbonyl)L[Hyp]W[Dab](Acridine9carbonyl)[Trp(1-CH2CO2Me)][NMeNle][NMeNle]LCG-NH2; thioether N-14), for which the IC50 was determined as 0.0226 µM.

With `CCCC[C@H]1C(=O)N(C)[C@@H](CCCC)C(=O)N[C@@H](CC(C)C)C(=O)N[C@H](C(=O)NCC(N)=O)CSCC(=O)N[C@@H](Cc2ccc(O)cc2)C(=O)N(C)[C@@H](C)C(=O)N[C@@H](CC(N)=O)C(=O)N2CCC[C@H]2C(=O)N[C@@H](CNC(=O)c2c3ccccc3cc3ccccc23)C(=O)N[C@@H](CC(C)C)C(=O)N2C[C@H](O)C[C@H]2C(=O)N[C@@H](Cc2c[nH]c3ccccc23)C(=O)N[C@@H](CCNC(=O)c2c3ccccc3cc3ccccc23)C(=O)N[C@@H](Cc2cn(CC(=O)OC)c3ccccc23)C(=O)N1C` [Example 2006] ({CH2CO}-Y[NMeA]NP[Dap](X34)L[Hyp]W[Dab](X34)[Trp(1-CH2CO2Me)][NMeNle][NMeNle]LCG-NH2; thioether N-14), the IC50 came out at 1.59 µM.

Consider `CCCC[C@H]1C(=O)N(C)[C@@H](CCCC)C(=O)N[C@@H](CC(C)C)C(=O)N[C@H](C(=O)NCC(N)=O)CSCC(=O)N[C@@H](Cc2ccc(O)cc2)C(=O)N(C)[C@@H](C)C(=O)N[C@@H](CC(N)=O)C(=O)N2CCC[C@H]2C(=O)N[C@@H](CNC(=S)Nc2ccc3c(c2)Cc2ccccc2-3)C(=O)N[C@@H](CC(C)C)C(=O)N2C[C@H](O)C[C@H]2C(=O)N[C@@H](Cc2c[nH]c3ccccc23)C(=O)N[C@@H](CCNC(=S)Nc2ccc3c(c2)Cc2ccccc2-3)C(=O)N[C@@H](Cc2cn(CC(=O)O)c3ccccc23)C(=O)N1C` [Example 2007] ({CH2CO}-Y[NMeA]NP[Dap](X1)L[Hyp]W[Dab](X1)[Trp(1-CH2COOH)][NMeNle][NMeNle]LCG-NH2; thioether N-14), for which the IC50 is 0.0133 µM.

In general, IC50 refers to the concentration needed to halve the response being measured.

The values above are taken from US20220389061A1, “IMMUNOMODULATORS” (priority 2019, published 2022).
